Common to all, as to type: cell-based
The test system of assay [1] is Burkholderia cepacia (DSM 7288). Nature of the assay: MIC study on agar, bacterial strain. To be noted: DSM7288, ppm of antimicrobial active (Hinokitiol), Caso-Agar pH 7.3, 2 to 3 weeks at 20 to 25° C. The method, then:
(§1) The individual concentrations of the test-product were weighed into sterile Erlenmeyer flasks and mixed with 100 ml of an appropriate growth media at a maximum temperature of about 40 to 50° C. Equal amounts of mixtures were poured into four Petri dishes. After cooling, the Petri dishes were inoculated with the respective standard strains. During the experiment, the Petri dishes were kept for 2 to 3 weeks at room temperature of about 20 to 25° C. in the dark. The following two different types of culture media were employed for the present studies: • i. Bacteria-Agar: merchantable Caso—Agar pH-Value: 7.3±0.2 • ii. Fungi/Yeast-Agar:merchantable Malt extract—Agar (3%) pH-Value: 5.6±0.2
(§2) After 2nd and 3rd weeks macroscopic evaluations were performed, the ratings are as follows:
(§3) The formulation under examination is considered to be efficient if the following conditions are duly fulfilled i.e. (i) after 2-3 weeks no growth of the tested culture is visible; (ii) with rising concentration of the tested formulation, the germ growth should macroscopically be reduced until it is not visible any more.

In assay [2] the test system is Escherichia coli (DSM 1576). Nature of the assay: MIC study on agar, bacterial strain. The following applies: for reduction of MIC level of hinokitiol: against Escherichia coli. The method, then: as §1, §2, §3
The test system of assay [3] is Pseudomonas aeruginosa (DSM 1128). Nature of the assay: MIC study on agar, bacterial strain. To be noted: DSM1128, ppm of antimicrobial active (Hinokitiol), Caso-Agar pH 7.3, 2 to 3 weeks at 20 to 25° C. The method, then: as §1, §2, §3
The subject of assay [4] is Staphylococcus aureus (DSM 799). Nature of the assay: MIC study on agar, bacterial strain. The method, then: as §1, §2, §3
In assay [5] the test system is Aspergillus brasiliensis (DSM 1988). Nature of the assay: MIC study on agar, fungal strain. To be noted: DSM1988, ppm of antimicrobial active (Hinokitiol), Malt extract-Agar (3%) pH 5.6, 2 to 3 weeks at 20 to 25° C. The method, then:
as §1, §2, §3

For assay [6], the system named is Trichoderma viride (DSM 63064). The assay is described as follows: MIC study on agar, fungal strain. The following applies: DSM63064, ppm of antimicrobial active (Hinokitiol), Malt extract-Agar (3%) pH 5.6, 2 to 3 weeks at 20 to 25° C. The method, then: as §1, §2, §3

Values after ≈ are worked out from the molar mass of the structure shown.

A word on the MIC: it is the least concentration at which growth counts as inhibited. Higher therefore signals weaker potency.

For `CC(C)c1cccc(O)c(=O)c1` [Hinokitiol, 2-Hydroxy-6-propan-2-ylcyclohepta-2,4,6-trien-1-one], the minimal inhibitory concentration (MIC) in assay [1] stood at 500 µg/mL (≈ 3040 µM); in assay [2] (DSM1576, Escherichia coli, ppm of antimicrobial active (Hinokitiol), Caso-Agar pH 7.3, 2 to 3 weeks at 20 to 25° C.) it was 100 µg/mL (≈ 609 µM); in assay [3], 500 µg/mL (≈ 3040 µM); in assay [4] (DSM799, Staphylococcus aureus, ppm of antimicrobial active (Hinokitiol), Caso-Agar pH 7.3, 2 to 3 weeks at 20 to 25° C.), 100 µg/mL (≈ 609 µM); in assay [5] it was 100 µg/mL (≈ 609 µM); in assay [6] it was 100 µg/mL (≈ 609 µM). In addition, the “reduction of MIC level of hinokitiol” value came out at 50% in assay [2] (in presence of 1,3-propanediol (Zemea)); 50% in assay [2] (in presence of sorbitan caprylate (Velsan SC)); 50% in assay [4] (in presence of 1,3-propanediol (Zemea), against Staphylococcus aureus).

The record behind these values is patent publication US10973228B2, “Eco-friendly non-aqueous antimicrobial composition comprising hinokitiol with 1,3-propanediol and/or sorbitan caprylate” (ISP INVESTMENTS INC., priority 2012, dated 2021).
